Laboratory results reported in patent publication EP4703357A1, “TRIAZOLYL-CONTAINING COMPOUNDS” (Chia Tai Tianqing Pharmaceutical Group Co., Ltd., priority 2023, dated 2024).
pIC50: −log10 of the molar value. Like-named read-outs stand apart in the source and are kept apart here. Blank lines part the entries; values can stand above or below the molecule they belong to.

Experiments:
Jurkat cells = assay: Inhibitory activity on Jurkat cell proliferation (CCK-8); assay type: cell-based; settings: Homo sapiens, 72 h incubation
Description: (§1) Jurkat cells in a good growth state were collected into a centrifuge tube, adjusted to a cell density of 5 × 10^4 cells/mL, and seeded in a 96-well plate (100 µL/well). The cells were incubated overnight in a cell incubator. Compounds were added using a nanoliter pipettor such that the final concentrations of the compounds were 1000 nM-0.46 nM (the addition was performed in duplicate). Meanwhile, a control was set. After another 72 h of incubation in the cell incubator, the assay reagent CCK-8 (manufacturer: Dojindo Laboratories, Beijing; 10 µL/well) was added. After 2 h of incubation in the cell incubator, absorbance was measured at 450 nm on an Envision microplate reader. A four-parameter analysis was performed, a dose-response curve was fit, and IC50 was calculated.

[1] = In vitro liver microsomal stability, mouse; assay type: in vitro ADME; settings: mouse liver microsome 0.5 mg/mL, NADPH, 37 °C, 1 h
Description: (§2) Liver microsome incubation samples were prepared by mixing a PBS buffer (pH = 7.4), a liver microsome solution (0.5 mg/mL), a test compound, and an NADPH + MgCl2 solution, and incubated at 37 °C and 300 rpm for 1 h. Zero-hour samples were prepared by mixing a PBS buffer (pH = 7.4), a liver microsome solution (0.5 mg/mL), and a test compound. An acetonitrile solution containing an internal standard was added to the samples, and supernatants were prepared by protein precipitation, diluted, and then assayed by LC/MS/MS. Table 17. In vitro metabolic stability of related compounds in liver microsomes of various species

[2] = test system: OCI-LY10 human diffuse large B-cell lymphoma NOD-SCID mouse subcutaneous xenograft tumor model; assay: Efficacy in OCI-LY10 subcutaneous xenograft tumor model; assay type: in vivo, NOD-SCID mice; settings: for TGI(%): by tumor weight
Source text: Efficacy evaluation in OCI-LY10 human diffuse large B-cell lymphoma NOD-SCID mouse subcutaneous xenograft tumor model • (1) SPF female NOD-SCID mice (source: Jiangsu Huachuang Xinnuo Pharmaceutical Technology Co., Ltd.) were inoculated subcutaneously at the right side armpit with OCI-LY10 human diffuse large B-cell lymphoma cells at 1 × 10^7 cells/mouse. When the mean tumor volume reached about 200 mm^3, the animals were divided into a control group (vehicle control group) and treatment groups (compound groups).
The administration dose included 1 mg/kg, 2 mg/kg, and 4 mg/kg, and the administration frequency was once daily. The day of grouping was defined as day 0, and intragastric administration was started on day 0 for 21 consecutive days.
Alternatively, the administration dose was 4 mg/kg, and the administration frequency was 5 times per week. The day of grouping was defined as day 0, and intragastric administration was started on day 0 five times per week for two consecutive weeks.
The tumor volume was measured once every 3 days, and meanwhile, the mice were weighed and the data were recorded; the general behavior of the mice was observed and recorded every day. After the experiment was completed, the tumors were removed, weighed, and photographed.
The detection index and the calculation formula are as follows: • Tumor volume TV (mm^3) = 1/2 × (a × b^2), wherein a is the long diameter of the tumor, and b is the short diameter of the tumor; • Relative tumor volume RTV = TVt/TV0, wherein TV0 is the tumor volume on day 0, and TVt is the tumor volume at each measurement; • Relative tumor proliferation rate T/C (%) = (TRTV/CRTV) × 100%, wherein TRTV is RTV of the treatment group, and CRTV is RTV of the vehicle control group; • Tumor growth inhibition rate TGI (%) = (1 - TW/TW0) × 100%; wherein TW is the tumor weight of the treatment group, and TW0 is the tumor weight of the vehicle control group; • Weight change rate WCR (%) = (Wtt - Wt0)/Wt0 × 100%, wherein Wt0 is the body weight of the mouse on day 0, and Wtt is the body weight of the mouse at each measurement.

OCI-LY10 cells = assay: Inhibitory activity on OCI-LY10 cell proliferation (CCK-8); assay type: cell-based; settings: Homo sapiens, 72 h incubation
Description: as §1, with “OCI-LY10 cells” for “Jurkat cells”, “of 9” for “of 5”

[3] = In vitro liver microsomal stability, human; assay type: in vitro ADME; settings: human liver microsome 0.5 mg/mL, NADPH, 37 °C, 1 h
Description: as §2

Mouse pharmacokinetics [4] = assay type: in vivo, ICR mice; settings: ICR, plasma
Mouse pharmacokinetics [5] = assay type: in vivo; settings: ICR, plasma, po, 3 mg/kg, Mice administered intragastrically 3 mpk
Description: ICR mice weighing 18-22 g were randomized into groups of 9 mice per group after 3-5 days of acclimatization and then administered intragastrically at a dose of 3 mg/kg.
Plasma samples to be tested were prepared by taking blood from the orbit at time points of 15 min, 30 min, 1 h, 2 h, 4 h, 6 h, 8 h, 10 h, and 24 h.
20 µL of each plasma sample to be tested and a standard curve sample were taken, and an acetonitrile solution containing an internal standard was added. A supernatant was obtained by protein precipitation, diluted, and then assayed by LC/MS/MS.
Pharmacokinetic parameters were fitted using a non-compartmental model.

[6] = Table 20, 4mg/kg intragastric, Day 18 of assay
[7] = Table 19, 4mg/kg intragastric, Day 21 of assay
[8] = 1 mg/kg, Mice administered by single intravenous injection 1 mpk
[9] = Table 19, 2mg/kg intragastric, Day 21 of assay

- pIC50 (Jurkat cells): ≥ 7.70
- Mouse liver microsome Residuals at 60 min (%) [1]: 89.63%
- Weight change rate (%) (mean ± SD) ([2]; Table 20, 4mg/kg intragastric, Day 21 of assay): 0.6±8.1%
- pIC50 (OCI-LY10 cells): ≥ 7.40
- Human liver microsome Residuals at 60 min (%) [3]: 86.18%
Compound: NC(=O)/C(=C/n1cnc(-c2cc(C(F)(F)F)nc(C(F)(F)F)c2)n1)c1cnc2ccccc2c1 [11(11-A)]
- RTV (mean±SD) [2, 6]: 1.7±0.2
- T/C(%) [2, 6]: 21.8%
- TV(mm^3) (mean±SD) [2, 6]: 326±52 mm^3
- TGI(%) ([2]; Table 20, 4mg/kg intragastric, Day 21 of assay, ** p < 0.01 vs control): 89.7%**

- pIC50 (Jurkat cells): ≥ 7.70
- Mouse liver microsome Residuals at 60 min (%) [1]: 94.66%
- Weight change rate (%) (mean ± SD) ([2]; Table 19, 4mg/kg intragastric, Day 23 of assay): 1.7±5.3%
- pIC50 (OCI-LY10 cells): ≥ 7.40
- Human liver microsome Residuals at 60 min (%) [3]: 110.48%
Compound: NC(=O)/C(=C/n1cnc(-c2cc(C(F)(F)F)nc(C(F)(F)F)c2)n1)c1cnc2cccnc2c1 [25(25-A)]
- RTV (mean±SD) [2, 7]: 1.8±0.6
- T/C(%) [2, 7]: 16.7%
- TV(mm^3) (mean±SD) [2, 7]: 360±105 mm^3
- TGI(%) ([2]; Table 19, 4mg/kg intragastric, Day 23 of assay, * p < 0.05 vs control): 91.1%*

- AUC(0-inf) (Mouse pharmacokinetics [4]; [8]): 1630 ng·h/mL
- clearance (Mouse pharmacokinetics [4]; [8]): 10.2 mL/min/kg
- half-life (Mouse pharmacokinetics [4]; [8]): 181 min
- AUC(0-t) (Mouse pharmacokinetics [4]; 1 mg/kg, Mice administered by single intravenous injection 1 mpk, read-out: AUC (0-24)): 1630 ng·h/mL
- AUC(0-inf) (Mouse pharmacokinetics [4]; po, 3 mg/kg, Mice administered intragastrically 3 mpk): 4760 ng·h/mL
- Mouse liver microsome Residuals at 60 min (%) [1]: 99.28%
- Weight change rate (%) (mean ± SD) ([2]; Table 19, 2mg/kg intragastric, Day 23 of assay): -2.0±6.5%
- Cmax (Mouse pharmacokinetics [5]): 871 ng/mL
- Tmax (Mouse pharmacokinetics [5]): 1 h
- half-life (Mouse pharmacokinetics [5]): 141 min
- AUC(0-t) (Mouse pharmacokinetics [5]; read-out: AUC (0-24)): 4750 ng·h/mL
- Human liver microsome Residuals at 60 min (%) [3]: 94.26%
Compound: Cc1ccc(/C(=C\n2cnc(-c3cc(C(F)(F)F)nc(C(F)(F)F)c3)n2)C(N)=O)cn1 [21(21-A)]
- RTV (mean±SD) [2, 9]: 2.4±0.4
- T/C(%) [2, 9]: 22.2%
- TV(mm^3) (mean±SD) [2, 9]: 520±178 mm^3
- TGI(%) ([2]; Table 19, 2mg/kg intragastric, Day 23 of assay, * p < 0.05 vs control): 89.3%*
